Reference: BindingDB's records for doi:10.1016/s0968-0896(99)00127-3 (Sankyo, 1999)

Target: T1, Dimer of Gag-Pol polyprotein [489-587] (Human immunodeficiency virus 1, UniProt P12497)
T1 construct: 489-587
Test: Protease Inhibition Assay
Procedure: The inhibitory activities of the compounds toward HIV-1 PR were determined by sodium dodecyl sulfate-polyacrylamide gel electrophoresis (SDS-PAGE) assay. The IC50 values of active compounds were determined using the partially purified protease and the synthetic substrate Ac-Ser-Gln-AsnTyr-Pro-Ile-Val-NH2.

Compound | IC50
Cc1c(O)cc(F)cc1C(=O)N[C@@H](Cc1cccc(C(F)(F)F)c1)[C@H](O)C(=O)N1C[C@@H](Cl)C[C@H]1C(=O)NC(C)(C)C [(5-Fluoro-3-hydroxy-2-methylbenzoyl)-{2(S)-hydroxy-3(S)-amino-4-(3-trifluoromethyl)-phenylbutanoyl}-4(S)-Cl-Pro-NH-t-Bu] | 2.1 nM
Cc1ccccc1C[C@H](NC(=O)c1ccc(C)c(O)c1C)[C@H](O)C(=O)N1C[C@@H](Cl)C[C@H]1C(=O)NC(C)(C)C [(2S,4S)-N-tert-butyl-4-chloro-1-[(2S,3S)-2-hydroxy-3-[(3-hydroxy-2,4-dimethylphenyl)formamido]-4-(2-methylphenyl)butanoyl]pyrrolidine-2-carboxamide] | 49.9 nM
Cc1ccc(C[C@H](NC(=O)c2cccc(O)c2C)[C@H](O)C(=O)N2C[C@@H](Cl)C[C@H]2C(=O)NC(C)(C)C)cc1 [(3-Hydroxy-2-methylbenzoyl)-(2(S)-hydroxy-3(S)-amino-4-p-tolylbutanoyl)-4(S)-Cl-Pro-NH-t-Bu] | 0.9 nM
Cc1c(O)cccc1C(=O)N[C@@H](Cc1ccccc1F)[C@H](O)C(=O)N1C[C@@H](Cl)C[C@H]1C(=O)NC(C)(C)C [(2S,4S)-N-tert-butyl-4-chloro-1-[(2S,3S)-4-(2-fluorophenyl)-2-hydroxy-3-[(3-hydroxy-2-methylphenyl)formamido]butanoyl]pyrrolidine-2-carboxamide] | 0.7 nM
Cc1cccc(C[C@H](NC(=O)c2c(C)ccc(O)c2C)[C@H](O)C(=O)N2C[C@@H](Cl)C[C@H]2C(=O)NC(C)(C)C)c1 | 3.4 nM
Cc1c(O)cccc1C(=O)N[C@@H](Cc1ccc(F)cc1)[C@H](O)C(=O)N1C[C@@H](Cl)C[C@H]1C(=O)NC(C)(C)C [(2S,4S)-N-tert-butyl-4-chloro-1-[(2S,3S)-4-(4-fluorophenyl)-2-hydroxy-3-[(3-hydroxy-2-methylphenyl)formamido]butanoyl]pyrrolidine-2-carboxamide] | 0.9 nM
Cc1ccc(O)c(C)c1C(=O)N[C@@H](Cc1cccc(C(F)(F)F)c1)[C@H](O)C(=O)N1C[C@@H](Cl)C[C@H]1C(=O)NC(C)(C)C [(2S,4S)-N-tert-butyl-4-chloro-1-[(2S,3S)-2-hydroxy-3-[(3-hydroxy-2,6-dimethylphenyl)formamido]-4-[3-(trifluoromethyl)phenyl]butanoyl]pyrrolidine-2-carboxamide] | 4.6 nM
Cc1cc(O)c(C)c(C(=O)N[C@@H](Cc2cccc(C(F)(F)F)c2)[C@H](O)C(=O)N2C[C@@H](Cl)C[C@H]2C(=O)NC(C)(C)C)c1 | 1.9 nM
Cc1c(O)cccc1C(=O)N[C@@H](Cc1ccc2ccccc2c1)[C@H](O)C(=O)N1C[C@@H](Cl)C[C@H]1C(=O)NC(C)(C)C [(3-Hydroxy-2-methylbenzoyl)-{2(S)-hydroxy-3(S)-amino-4-(beta-naphtyl)-butanoyl}-4(S)-Cl-Pro-NH-t-Bu] | 1 nM
Cc1c(O)cccc1C(=O)N[C@@H](CCc1ccccc1)[C@H](O)C(=O)N1C[C@@H](Cl)C[C@H]1C(=O)NC(C)(C)C [(3-Hydroxy-2-methylbenzoyl)-(2(S)-hydroxy-3(S)-amino-5-phenylpentanoyl)-4(S)-Cl-Pro-NH-t-Bu] | 1.4 nM
Cc1c(O)cc(F)cc1C(=O)N[C@@H](Cc1ccc2ccccc2c1)[C@H](O)C(=O)N1C[C@@H](Cl)C[C@H]1C(=O)NC(C)(C)C [(2S,4S)-N-tert-butyl-4-chloro-1-[(2S,3S)-3-[(5-fluoro-3-hydroxy-2-methylphenyl)formamido]-2-hydroxy-4-(naphthalen-2-yl)butanoyl]pyrrolidine-2-carboxamide] | 1.2 nM
Cc1cc(O)c(C)c(C(=O)N[C@@H](Cc2cc(F)cc(F)c2)[C@H](O)C(=O)N2C[C@@H](Cl)C[C@H]2C(=O)NC(C)(C)C)c1 [(3-Hydroxy-2,5-dimethylbenzoyl)-{2(S)-hydroxy-3(S)-amino-4-(3,5-difluoro)-phenylbutanoyl}-4(S)-Cl-Pro-NH-t-Bu] | 1.2 nM
Cc1c(O)cccc1C(=O)N[C@@H](Cc1cccc(C(F)(F)F)c1)[C@H](O)C(=O)N1C[C@@H](Cl)C[C@H]1C(=O)NC(C)(C)C [(3-Hydroxy-2-methylbenzoyl)-{2(S)-hydroxy-3(S)-amino-4-(3-trifluoromethyl)-phenylbutanoyl}-4(S)-Cl-Pro-NH-t-Bu] | 0.5 nM
Cc1c(O)cccc1C(=O)N[C@@H](Cc1ccccc1)[C@H](O)C(=O)N1C[C@@H](Cl)C[C@H]1C(=O)NC(C)(C)C [(3-Hydroxy-2-methylbenzoyl)-(2(S)-hydroxy-3(S)-amino-phenylbutanoyl)-4(S)-Cl-Pro-NH-t-Bu] | 0.9 nM
Cc1cccc(C[C@H](NC(=O)c2ccc(C)c(O)c2C)[C@H](O)C(=O)N2C[C@@H](Cl)C[C@H]2C(=O)NC(C)(C)C)c1 [(3-Hydroxy-2,4-dimethylbenzoyl)-(2(S)-hydroxy-3(S)-amino-4-m-tolylbutanoyl)-4(S)-Cl-Pro-NH-t-Bu] | 2.5 nM
Cc1c(O)cccc1C(=O)N[C@@H](Cc1cccc(F)c1)[C@H](O)C(=O)N1C[C@@H](Cl)C[C@H]1C(=O)NC(C)(C)C [(2S,4S)-N-tert-butyl-4-chloro-1-[(2S,3S)-4-(3-fluorophenyl)-2-hydroxy-3-[(3-hydroxy-2-methylphenyl)formamido]butanoyl]pyrrolidine-2-carboxamide] | 0.6 nM

Compound | IC50
Cc1cc(O)c(C)c(C(=O)N[C@@H](Cc2ccccc2)[C@H](O)C(=O)N2C[C@@H](Cl)C[C@H]2C(=O)NC(C)(C)C)c1 [(2S,4S)-N-tert-butyl-4-chloro-1-[(2S,3S)-2-hydroxy-3-[(3-hydroxy-2,5-dimethylphenyl)formamido]-4-phenylbutanoyl]pyrrolidine-2-carboxamide] | 1.3 nM
Cc1c(O)cccc1C(=O)N[C@@H](Cc1ccc(F)cc1F)[C@H](O)C(=O)N1C[C@@H](Cl)C[C@H]1C(=O)NC(C)(C)C [(2S,4S)-N-tert-butyl-4-chloro-1-[(2S,3S)-4-(2,4-difluorophenyl)-2-hydroxy-3-[(3-hydroxy-2-methylphenyl)formamido]butanoyl]pyrrolidine-2-carboxamide] | 1.6 nM
Cc1cc(O)c(C)c(C(=O)N[C@@H](Cc2ccc(-c3ccccc3)cc2)[C@H](O)C(=O)N2C[C@@H](Cl)C[C@H]2C(=O)NC(C)(C)C)c1 [(3-Hydroxy-2,5-dimethylbenzoyl)-{2(S)-hydroxy-3(S)-amino-4-(4-phenyl)-phenylbutanoyl}-4(S)-Cl-Pro-NH-t-Bu] | 1.3 nM
Cc1c(O)cccc1C(=O)N[C@@H](Cc1ccc(-c2ccccc2)cc1)[C@H](O)C(=O)N1C[C@@H](Cl)C[C@H]1C(=O)NC(C)(C)C [(3-Hydroxy-2-methylbenzoyl)-{2(S)-hydroxy-3(S)-amino-4-(4-phenyl)-phenylbutanoyl}-4(S)-Cl-Pro-NH-t-Bu] | 0.9 nM
Cc1ccc(C(=O)N[C@@H](Cc2ccccc2)[C@H](O)C(=O)N2C[C@@H](Cl)C[C@H]2C(=O)NC(C)(C)C)c(C)c1O | 8.2 nM
Cc1ccc(C[C@H](NC(=O)c2ccc(C)c(O)c2C)[C@H](O)C(=O)N2C[C@@H](Cl)C[C@H]2C(=O)NC(C)(C)C)cc1 [(2S,4S)-N-tert-butyl-4-chloro-1-[(2S,3S)-2-hydroxy-3-[(3-hydroxy-2,4-dimethylphenyl)formamido]-4-(4-methylphenyl)butanoyl]pyrrolidine-2-carboxamide] | 8.6 nM
Cc1c(O)cccc1C(=O)N[C@@H](Cc1ccc(O)cc1)[C@H](O)C(=O)N1C[C@@H](Cl)C[C@H]1C(=O)NC(C)(C)C [(2S,4S)-N-tert-butyl-4-chloro-1-[(2S,3S)-2-hydroxy-3-[(3-hydroxy-2-methylphenyl)formamido]-4-(4-hydroxyphenyl)butanoyl]pyrrolidine-2-carboxamide] | 1.3 nM
Cc1ccc(C(=O)N[C@@H](Cc2cccc(C(F)(F)F)c2)[C@H](O)C(=O)N2C[C@@H](Cl)C[C@H]2C(=O)NC(C)(C)C)c(C)c1O | 3.5 nM
COc1ccc(C[C@H](NC(=O)c2cccc(O)c2C)[C@H](O)C(=O)N2C[C@@H](Cl)C[C@H]2C(=O)NC(C)(C)C)cc1 [(3-Hydroxy-2-methylbenzoyl)-{2(S)-hydroxy-3(S)-amino-4-(4-methoxy)-phenylbutanoyl}-4(S) -Cl-Pro-NH-t-Bu] | 0.9 nM
Cc1cc(O)c(C)c(C(=O)N[C@@H](Cc2ccc3sccc3c2)[C@H](O)C(=O)N2C[C@@H](Cl)C[C@H]2C(=O)NC(C)(C)C)c1 [(2S,4S)-1-[(2S,3S)-4-(1-benzothiophen-5-yl)-2-hydroxy-3-[(3-hydroxy-2,5-dimethylphenyl)formamido]butanoyl]-N-tert-butyl-4-chloropyrrolidine-2-carboxamide] | 1.5 nM
Cc1ccc(C(=O)N[C@@H](Cc2ccc3ccccc3c2)[C@H](O)C(=O)N2C[C@@H](Cl)C[C@H]2C(=O)NC(C)(C)C)c(C)c1O | 3.2 nM
Cc1ccc(C[C@H](NC(=O)c2cccc(O)c2C)[C@H](O)C(=O)N2C[C@@H](Cl)C[C@H]2C(=O)NC(C)(C)C)cc1C [(2S,4S)-N-tert-butyl-4-chloro-1-[(2S,3S)-4-(3,4-dimethylphenyl)-2-hydroxy-3-[(3-hydroxy-2-methylphenyl)formamido]butanoyl]pyrrolidine-2-carboxamide] | 1.2 nM
Cc1c(O)cccc1C(=O)N[C@@H](Cc1cc(F)cc(F)c1)[C@H](O)C(=O)N1C[C@@H](Cl)C[C@H]1C(=O)NC(C)(C)C [(3-Hydroxy-2-methylbenzoyl)-{2(S)-hydroxy-3(S)-amino-4-(3,5-difluoro)-phenylbutanoyl}-4(S)-Cl-Pro-NH-t-Bu] | 0.8 nM
Cc1c(O)cc(F)cc1C(=O)N[C@@H](Cc1ccccc1)[C@H](O)C(=O)N1C[C@@H](Cl)C[C@H]1C(=O)NC(C)(C)C | 1.7 nM
Cc1c(O)cccc1C(=O)N[C@@H](Cc1cccc2ccccc12)[C@H](O)C(=O)N1C[C@@H](Cl)C[C@H]1C(=O)NC(C)(C)C [(3-Hydroxy-2-methylbenzoyl)-{2(S)-hydroxy-3(S)-amino-4-(alpha-naphtyl)-butanoyl}-4(S)-Cl-Pro-NH-t-Bu] | 1.5 nM
Cc1c(O)cc(F)cc1C(=O)N[C@@H](Cc1ccc2sccc2c1)[C@H](O)C(=O)N1C[C@@H](Cl)C[C@H]1C(=O)NC(C)(C)C [(5-Fluoro-3-hydroxy-2-methylbenzoyl)-{2(S)-hydroxy-3(S)-amino-4-(benzo[b]thiophene-5-yl)-butanoyl}-4(S)-Cl-Pro-NH-t-Bu] | 1.9 nM
